Measurements from ChEMBL document CHEMBL4311943, “3-[(1S,2S,3R)-2,3-Difluoro-1-hydroxy-7-methylsulfonylindan-4-yl]oxy-5-fluorobenzonitrile (PT2977), a Hypoxia-Inducible Factor 2α (HIF-2α) Inhibitor for the Treatment of Clear Cell Renal Cell Carcinoma” (J Med Chem, 2019).
Calls of active or inactive are those of the source. No cut-off for these calls is given here.

Legend:
[1] = Plasma concentration in patient with advanced solid tumor at 240 mg, po administered once daily measured on day 15 after 24 hrs; assay type: ADME, organism-based; conditions: human
[2] = target: Muscarinic acetylcholine receptor M3 (Homo sapiens) (UniProt P20309); assay: Activity at human M3 receptor at 10 uM
[3] = target: Adenosine receptor A3 (Homo sapiens) (UniProt P0DMS8); assay: Activity at human adenosine A3 receptor at 10 uM
[4] = target: Somatostatin receptor type 4 (Homo sapiens) (UniProt P31391); assay: Activity at human SST4 receptor at 10 uM
[5] = target: Potassium voltage-gated channel subfamily KQT member 1 (Homo sapiens, UniProt P51787); assay: Activity at human KCNQ1 at 10 uM
[6] = target: D(2) dopamine receptor (Homo sapiens) (UniProt P14416); assay: Activity at human D2L receptor at 10 uM
Cytochrome P450 2C9 = Cytochrome P450 2C9 (Homo sapiens, UniProt P11712); assay: Inhibition of CYP2C9 in human liver microsomes up to 50 uM using diclofenac as substrate measured after 10 mins in presence of NADPH by LC-MS/MS analysis; assay type: ADME
[7] = Drug level in plasma of SCID Beige mouse xenografted with human 786-O cells at 1 mg/kg, po administered twice daily via gavage for 3 days measured 12 hrs post-last dose; assay type: ADME, organism-based
[8] = Half life in patient with advanced solid tumor at 240 mg, po administered once daily measured on day 15; assay type: ADME, organism-based; conditions: human, in vivo
[9] = target: Mitogen-activated protein kinase 1 (Homo sapiens) (UniProt P28482); assay: Activity at human MAPK1 at 10 uM
[10] = Half life in CD-1 mouse at 3 mg/kg, iv by UPLC-MS analysis; assay type: ADME, organism-based; conditions: in vivo
[11] = target: C-C chemokine receptor type 1 (Homo sapiens) (UniProt P32246); assay: Activity at human CCR1 receptor at 10 uM
[12] = target: Corticotropin-releasing factor receptor 1 (Homo sapiens) (UniProt P34998); assay: Activity at human CRF1 receptor at 10 uM
[13] = target: Calcitonin gene-related peptide type 1 receptor (Homo sapiens) (UniProt Q16602); assay: Activity at human CGRP1 at 10 uM
Cytochrome P450 3A4 = Cytochrome P450 3A4 (Homo sapiens, UniProt P08684); assay: Inhibition of CYP3A4 in human liver microsomes up to 50 uM using midazolam as substrate measured after 10 mins in presence of NADPH by LC-MS/MS analysis; assay type: ADME
[14] = target: Rho-associated protein kinase 2 (Homo sapiens) (UniProt O75116); assay: Activity at human ROCK2 at 10 uM
[15] = target: CX3C chemokine receptor 1 (Homo sapiens) (UniProt P49238); assay: Activity at human CX3CR1 receptor at 10 uM
[16] = target: Beta-1 adrenergic receptor (Homo sapiens) (UniProt P08588); assay: Activity at human beta1 receptor at 10 uM
[17] = target: Insulin receptor (Homo sapiens) (UniProt P06213); assay: Activity at human IR at 10 uM
[18] = target: Sphingosine 1-phosphate receptor 3 (Homo sapiens) (UniProt Q99500); assay: Activity at human S1P3 receptor at 10 uM
[19] = target: Type-1 angiotensin II receptor (Homo sapiens) (UniProt P30556); assay: Activity at human AT1 receptor at 10 uM
[20] = target: Tyrosine-protein kinase Lyn (Homo sapiens) (UniProt P07948); assay: Activity at human Lyn at 10 uM
[21] = Volume of distribution at steady state in Sprague-Dawley rat at 1 mg/kg, iv by UPLC-MS analysis; assay type: ADME, organism-based; conditions: in vivo, read-out: Vdss
[22] = target: Cyclin-dependent kinase 5/CDK5 activator 1 (Homo sapiens) (UniProt Q00535+Q15078); assay: Activity at human CDK5/p35 at 10 uM; assay type: protein-complex assay
[23] = target: Protein kinase C gamma type (Homo sapiens) (UniProt P05129); assay: Activity at human PKCgamma at 10 uM
[24] = Dose normalized AUClast in monkey at 5 mg/kg, po administered via gavage by UPLC-MS analysis; assay type: ADME, organism-based, Macaca mulatta; conditions: rhesus monkey, in vivo
[25] = target: Cannabinoid receptor 1 (Homo sapiens) (UniProt P21554); assay: Activity at human CB1 receptor at 10 uM
[26] = Dose normalized AUClast in Sprague-Dawley rat at 10 mg/kg, po administered via gavage by UPLC-MS analysis; assay type: ADME, organism-based; conditions: in vivo
[27] = Clearance in CD-1 mouse at 3 mg/kg, iv by UPLC-MS analysis; assay type: ADME, organism-based; conditions: in vivo
[28] = target: Voltage-gated inwardly rectifying potassium channel KCNH2 (Homo sapiens, UniProt Q12809); assay: Inhibition of human ERG expressed in mammalian expression system by Q-patch clamp electrophysiology method
[29] = Plasma concentration in patient with advanced solid tumor at 80 mg, po administered once daily measured on day 15 after 24 hrs; assay type: ADME, organism-based; conditions: human
Cytochrome P450 1A2 = Cytochrome P450 1A2 (Homo sapiens, UniProt P05177); assay: Inhibition of CYP1A2 in human liver microsomes up to 50 uM using phenacetin as substrate measured after 10 mins in presence of NADPH by LC-MS/MS analysis; assay type: ADME
[30] = target: Lysophosphatidic acid receptor 3 (Homo sapiens) (UniProt Q9UBY5); assay: Activity at human LPA3 receptor at 10 uM
[31] = target: Prostaglandin E2 receptor EP2 subtype (Homo sapiens) (UniProt P43116); assay: Activity at human Prostanoid EP2 receptor at 10 uM
[32] = target: 5-hydroxytryptamine receptor 2A (Homo sapiens) (UniProt P28223); assay: Activity at human 5-HT2A receptor at 10 uM
[33] = Cmax in patient with advanced solid tumor at 160 mg, po administered once daily measured on day 15; assay type: ADME, organism-based; design: dose 160 mg, route oral; conditions: human, in vivo
[34] = target: Muscarinic acetylcholine receptor M1 (Homo sapiens) (UniProt P11229); assay: Activity at human M1 receptor at 10 uM
[35] = Clearance in Beagle dog at 1 mg/kg, iv by UPLC-MS analysis; assay type: ADME, organism-based, Canis lupus familiaris; conditions: in vivo
[36] = target: Delta-type opioid receptor (Homo sapiens) (UniProt P41143); assay: Activity at human delta opioid receptor at 10 uM
[37] = Drug level in plasma of SCID Beige mouse xenografted with human 786-O cells at 0.3 mg/kg, po administered twice daily via gavage for 3 days measured 12 hrs post-last dose; assay type: ADME, organism-based
[38] = AUClast in patient with advanced solid tumor at 160 mg, po administered once daily measured on day 15; assay type: ADME, organism-based; design: dose 160 mg, time 0 - last, route oral; conditions: human, in vivo
[39] = target: B2 bradykinin receptor (Homo sapiens) (UniProt P30411); assay: Activity at human bradykinin B2 receptor at 10 uM
[40] = target: CDK9/cyclin T1 (Homo sapiens) (UniProt O60563+P50750); assay: Activity at human CDK9/cyclinT1 at 10 uM; assay type: protein-complex assay
[41] = target: cGMP-dependent protein kinase 1 (Homo sapiens) (UniProt Q13976); assay: Activity at human PKG1alpha at 10 uM
Chain of cGMP-dependent protein kinase 1 (Homo sapiens) (Q13976 whole entry): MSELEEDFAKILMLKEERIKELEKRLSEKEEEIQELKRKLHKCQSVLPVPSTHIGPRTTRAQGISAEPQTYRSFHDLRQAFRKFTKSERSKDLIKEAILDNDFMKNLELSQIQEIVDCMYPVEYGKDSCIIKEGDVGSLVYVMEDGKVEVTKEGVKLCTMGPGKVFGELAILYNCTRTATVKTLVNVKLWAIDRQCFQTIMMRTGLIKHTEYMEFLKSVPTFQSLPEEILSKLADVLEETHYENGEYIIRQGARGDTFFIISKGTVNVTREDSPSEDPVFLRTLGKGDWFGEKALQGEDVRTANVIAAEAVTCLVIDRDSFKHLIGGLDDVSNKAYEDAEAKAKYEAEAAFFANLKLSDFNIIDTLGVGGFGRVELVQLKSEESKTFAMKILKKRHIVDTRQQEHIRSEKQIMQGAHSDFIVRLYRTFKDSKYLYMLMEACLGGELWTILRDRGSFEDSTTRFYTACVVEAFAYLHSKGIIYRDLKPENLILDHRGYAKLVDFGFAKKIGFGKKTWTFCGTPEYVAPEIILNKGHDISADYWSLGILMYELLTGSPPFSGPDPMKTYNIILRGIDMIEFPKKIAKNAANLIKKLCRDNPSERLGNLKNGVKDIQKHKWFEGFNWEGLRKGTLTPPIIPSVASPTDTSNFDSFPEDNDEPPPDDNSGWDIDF

Chain of Lysophosphatidic acid receptor 3 (Homo sapiens) (Q9UBY5 whole entry): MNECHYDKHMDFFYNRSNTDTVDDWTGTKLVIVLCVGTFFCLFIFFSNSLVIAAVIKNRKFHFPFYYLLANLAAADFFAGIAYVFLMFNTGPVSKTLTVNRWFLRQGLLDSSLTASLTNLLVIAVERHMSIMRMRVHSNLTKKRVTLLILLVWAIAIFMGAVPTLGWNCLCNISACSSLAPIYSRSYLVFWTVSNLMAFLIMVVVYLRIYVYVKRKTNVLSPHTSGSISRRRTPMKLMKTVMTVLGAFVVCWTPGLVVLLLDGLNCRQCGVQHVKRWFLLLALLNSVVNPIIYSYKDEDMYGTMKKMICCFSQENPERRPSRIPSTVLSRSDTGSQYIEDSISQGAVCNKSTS
Chain of B2 bradykinin receptor (Homo sapiens) (P30411 whole entry): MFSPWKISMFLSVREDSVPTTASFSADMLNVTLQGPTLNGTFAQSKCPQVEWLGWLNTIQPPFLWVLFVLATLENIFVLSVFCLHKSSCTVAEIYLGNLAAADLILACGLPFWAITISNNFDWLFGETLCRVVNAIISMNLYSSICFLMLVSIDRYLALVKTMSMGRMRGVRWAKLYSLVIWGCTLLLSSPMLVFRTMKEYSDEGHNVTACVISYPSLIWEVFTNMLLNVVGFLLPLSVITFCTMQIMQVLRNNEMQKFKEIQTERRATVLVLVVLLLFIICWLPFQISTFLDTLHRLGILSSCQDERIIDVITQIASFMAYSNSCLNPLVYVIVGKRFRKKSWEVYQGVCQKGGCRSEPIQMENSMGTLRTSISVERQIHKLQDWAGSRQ
Chain of Corticotropin-releasing factor receptor 1 (Homo sapiens) (P34998 whole entry): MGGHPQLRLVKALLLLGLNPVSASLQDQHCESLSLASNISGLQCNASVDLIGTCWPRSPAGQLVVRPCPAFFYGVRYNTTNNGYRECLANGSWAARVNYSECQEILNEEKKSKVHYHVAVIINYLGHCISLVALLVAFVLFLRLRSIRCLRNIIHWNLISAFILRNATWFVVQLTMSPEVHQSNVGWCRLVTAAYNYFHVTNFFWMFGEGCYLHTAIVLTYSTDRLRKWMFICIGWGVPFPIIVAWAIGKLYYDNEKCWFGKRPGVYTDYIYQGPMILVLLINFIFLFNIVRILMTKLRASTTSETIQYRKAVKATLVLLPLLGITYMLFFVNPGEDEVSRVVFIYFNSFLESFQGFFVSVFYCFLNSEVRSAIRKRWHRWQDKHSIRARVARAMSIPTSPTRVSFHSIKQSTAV
Chain of Tyrosine-protein kinase Lyn (Homo sapiens) (P07948 2-512 limits assumed): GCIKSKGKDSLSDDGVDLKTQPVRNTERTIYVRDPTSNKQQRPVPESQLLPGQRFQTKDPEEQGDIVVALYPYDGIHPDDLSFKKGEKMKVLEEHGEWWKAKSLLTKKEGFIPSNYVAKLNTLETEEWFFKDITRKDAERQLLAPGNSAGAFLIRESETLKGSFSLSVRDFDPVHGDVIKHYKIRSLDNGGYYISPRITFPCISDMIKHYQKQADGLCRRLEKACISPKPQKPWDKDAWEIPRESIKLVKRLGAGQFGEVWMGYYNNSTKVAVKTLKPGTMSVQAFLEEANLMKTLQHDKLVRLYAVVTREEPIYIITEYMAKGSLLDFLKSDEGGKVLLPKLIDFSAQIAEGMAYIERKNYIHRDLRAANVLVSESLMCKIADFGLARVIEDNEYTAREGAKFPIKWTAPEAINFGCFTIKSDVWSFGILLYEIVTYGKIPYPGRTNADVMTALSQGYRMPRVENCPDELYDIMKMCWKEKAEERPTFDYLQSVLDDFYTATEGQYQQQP
Chain of 5-hydroxytryptamine receptor 2A (Homo sapiens) (P28223 whole entry): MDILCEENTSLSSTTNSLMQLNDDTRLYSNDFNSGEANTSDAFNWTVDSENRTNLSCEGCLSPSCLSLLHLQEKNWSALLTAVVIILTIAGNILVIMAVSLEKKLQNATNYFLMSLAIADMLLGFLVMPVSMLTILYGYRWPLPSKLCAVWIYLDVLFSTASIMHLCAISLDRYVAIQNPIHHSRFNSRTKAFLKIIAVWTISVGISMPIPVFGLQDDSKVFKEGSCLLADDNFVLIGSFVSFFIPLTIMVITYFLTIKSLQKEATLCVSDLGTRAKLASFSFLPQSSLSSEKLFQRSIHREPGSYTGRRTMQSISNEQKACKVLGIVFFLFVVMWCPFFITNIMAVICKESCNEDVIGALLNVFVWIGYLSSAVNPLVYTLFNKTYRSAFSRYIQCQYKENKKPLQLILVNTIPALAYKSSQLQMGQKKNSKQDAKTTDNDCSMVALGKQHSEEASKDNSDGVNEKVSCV
Chain of Cannabinoid receptor 1 (Homo sapiens) (P21554 whole entry): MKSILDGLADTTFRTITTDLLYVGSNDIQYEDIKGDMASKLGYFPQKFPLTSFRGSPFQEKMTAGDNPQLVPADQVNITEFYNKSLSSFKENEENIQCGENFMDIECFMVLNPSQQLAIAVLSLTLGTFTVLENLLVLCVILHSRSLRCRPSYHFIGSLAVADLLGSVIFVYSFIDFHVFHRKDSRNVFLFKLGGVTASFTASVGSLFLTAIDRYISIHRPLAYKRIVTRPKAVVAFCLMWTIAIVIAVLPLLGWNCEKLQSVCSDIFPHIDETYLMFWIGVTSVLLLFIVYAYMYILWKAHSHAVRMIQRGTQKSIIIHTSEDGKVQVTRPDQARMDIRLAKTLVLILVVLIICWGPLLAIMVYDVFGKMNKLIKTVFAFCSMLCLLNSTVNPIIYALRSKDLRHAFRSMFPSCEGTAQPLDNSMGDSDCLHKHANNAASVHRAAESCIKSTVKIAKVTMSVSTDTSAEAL
Chain of Sphingosine 1-phosphate receptor 3 (Homo sapiens) (Q99500 whole entry): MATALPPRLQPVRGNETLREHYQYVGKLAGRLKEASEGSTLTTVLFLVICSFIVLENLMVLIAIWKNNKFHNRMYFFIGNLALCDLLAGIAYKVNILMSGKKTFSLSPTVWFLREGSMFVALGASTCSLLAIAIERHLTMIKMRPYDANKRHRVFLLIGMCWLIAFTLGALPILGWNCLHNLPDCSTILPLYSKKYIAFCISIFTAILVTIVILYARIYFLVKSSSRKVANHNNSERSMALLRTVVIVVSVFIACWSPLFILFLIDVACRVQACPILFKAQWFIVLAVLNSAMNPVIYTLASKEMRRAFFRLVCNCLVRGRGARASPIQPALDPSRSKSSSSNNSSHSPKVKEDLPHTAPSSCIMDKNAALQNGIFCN
Chain of Delta-type opioid receptor (Homo sapiens) (P41143 whole entry): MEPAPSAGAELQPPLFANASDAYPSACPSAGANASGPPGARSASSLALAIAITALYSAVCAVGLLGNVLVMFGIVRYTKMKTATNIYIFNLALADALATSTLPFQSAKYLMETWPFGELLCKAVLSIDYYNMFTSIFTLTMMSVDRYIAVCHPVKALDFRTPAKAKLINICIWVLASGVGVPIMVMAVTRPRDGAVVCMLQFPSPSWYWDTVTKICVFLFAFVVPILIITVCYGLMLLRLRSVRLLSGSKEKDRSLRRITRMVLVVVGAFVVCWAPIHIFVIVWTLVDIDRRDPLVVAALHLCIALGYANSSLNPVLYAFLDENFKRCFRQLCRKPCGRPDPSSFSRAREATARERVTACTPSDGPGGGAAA
Chain of Cytochrome P450 1A2 (P05177 whole entry): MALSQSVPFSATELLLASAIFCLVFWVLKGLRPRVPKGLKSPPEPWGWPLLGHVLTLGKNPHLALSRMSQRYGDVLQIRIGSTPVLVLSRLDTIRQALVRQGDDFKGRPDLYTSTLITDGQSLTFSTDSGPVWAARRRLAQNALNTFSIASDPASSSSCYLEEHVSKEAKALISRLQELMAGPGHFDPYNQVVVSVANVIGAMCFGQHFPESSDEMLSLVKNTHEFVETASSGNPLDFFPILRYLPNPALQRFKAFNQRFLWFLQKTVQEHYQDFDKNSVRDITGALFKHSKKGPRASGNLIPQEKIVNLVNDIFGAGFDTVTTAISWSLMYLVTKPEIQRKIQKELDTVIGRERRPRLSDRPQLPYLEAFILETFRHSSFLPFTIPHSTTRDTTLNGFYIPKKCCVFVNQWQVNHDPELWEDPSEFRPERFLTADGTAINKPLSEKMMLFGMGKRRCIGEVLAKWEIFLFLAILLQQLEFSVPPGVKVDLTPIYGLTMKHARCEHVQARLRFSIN
Chain of Somatostatin receptor type 4 (Homo sapiens) (P31391 whole entry): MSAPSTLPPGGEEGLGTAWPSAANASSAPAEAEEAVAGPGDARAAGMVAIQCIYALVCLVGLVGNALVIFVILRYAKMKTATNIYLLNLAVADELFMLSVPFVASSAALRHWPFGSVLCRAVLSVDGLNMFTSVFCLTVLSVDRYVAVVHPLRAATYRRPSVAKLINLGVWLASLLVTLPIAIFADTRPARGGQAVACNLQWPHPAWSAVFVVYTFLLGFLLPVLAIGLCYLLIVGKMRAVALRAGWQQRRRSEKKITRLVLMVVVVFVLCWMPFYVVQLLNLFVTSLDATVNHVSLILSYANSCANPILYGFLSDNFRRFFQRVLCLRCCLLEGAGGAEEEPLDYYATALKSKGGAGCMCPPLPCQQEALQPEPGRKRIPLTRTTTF

In the case of `CS(=O)(=O)c1ccc(Oc2cc(F)cc(C#N)c2)c2c1[C@H](O)[C@H](F)[C@@H]2F` [BELZUTIFAN], the concentration at 24 h [1] is reported as 570 ng/mL, the Activity [2] is reported as “inactive” and the Activity [3] is reported as “inactive”. For the same compound, the Activity [4] was “inactive”, the Activity [5] was “Not Active” and the Activity [6] was “inactive”. For the same compound, the “inhibition (INH)” value (Cytochrome P450 2C9) was “Not Active”, the concentration at 12 h [7] was 27 ng/mL and the half-life [8] was 14.1 h. For the same compound, the Activity [9] was “inactive”, the half-life [10] was 4 h and the Activity [11] was “inactive”. The Activity [12] was “inactive”, the Activity [13] was “inactive” and the “inhibition (INH)” value (Cytochrome P450 3A4) was “Not Active”. For the same compound, the Activity [14] was “inactive”, the Activity [15] was “inactive” and the Activity [16] was “inactive”. The Activity [17] was “inactive”, the Activity [18] was “inactive” and the Activity [19] was “inactive”. The Activity [20] was “inactive”, the Vd [21] was 1.6 L/kg and the Activity [22] was “inactive”. The Activity [23] was “inactive”, the AUClast/dose [24] was 31 µM·h and the Activity [25] was “inactive”. It also gave an AUClast/dose [26] of 13 µM·h, a clearance [27] of 21 mL/min/kg and an IC50 [28] greater than 50 µM. The concentration at 24 h [29] was 490 ng/mL, the “inhibition (INH)” value (Cytochrome P450 1A2) was “Not Active” and the Activity [30] was “inactive”. The Activity [31] was “inactive”, the Activity [32] was “inactive” and the Cmax [33] was 2000 ng/mL. The Activity [34] was “inactive”, the clearance [35] was 1.3 mL/min/kg and the Activity [36] was “inactive”. The concentration at 12 h [37] was less than 19 ng/mL, the AUC(0-t) [38] was 21000 ng·h/mL and the Activity [39] was “inactive”. For the same compound, the Activity [40] was “inactive” and the Activity [41] was “inactive”.
